Results published in patent US10328161B2, “Luciferin derivatives from bicyclic reactants and aminothiol derivatives and methods of use thereof” (The Regents of the University of California, priority 2012, dated 2019).

Assays:
Format in all cases: in vivo
[1] = Antioxidant (NAC) experiments in mice; settings: NAC 10 mg/kg IP, H2O2 1.5 μmol, PCL-2 and D-cysteine 0.05 μmol each
Excerpt: A Xenogen IVIS Spectrum instrument (Caliper Life Sciences, Hopkinton, Mass.) was used for bioluminescent imaging in all animal experiments. Mice were anesthetized prior to injection and during imaging via inhalation of isoflurane. Phosphate Buffered Saline (PBS) was purchased from Thermo Fisher Scientific (Waltham, Mass.), and saline (0.9%) was made from sodium chloride and Millipore water. Isoflurane was purchased from Phoenix Pharmaceuticals, Inc. (St. Joseph, Mo.), and pharmaceutical grade DMSO was purchased from Sigma-Aldrich (St. Louis, Mo.). Medical grade oxygen was purchased from Praxair (Danbury, Conn.). FVB-luc^+ (FVB-Tg(CAG-luc,-GFP)L2G85Chco/J) mice were bred at UC Berkeley, and were single or group-housed on a 12:12 light-dark cycle at 22° C. with free access to food and water. All studies were approved and performed according to the guidelines of the Animal Care and Use Committee of the University of California, Berkeley. Unshaven, male FVB-luc^+ mice, were anesthetized with isoflurane and injected IP with NAC (10 mg/kg in 25 μL of PBS, pH 7-8) or PBS (25 μL). After 2 min, the mice were injected IP with a mixture of PCL-2 and D-cysteine (0.05 μmol each, in 50 μL of 1:1 DMSO:PBS) immediately prior to IP injection of H2O2 (1.5 μmol in 75 μL of PBS). […]

caspase 8 = biological target: T1, caspase 8 (Mus musculus, UniProt O89110); experiment: Lipopolysaccharide inflammation model, caspase 8 detection with IETDC; settings: pan-caspase inhibitor 1 μmol IP, LPS-treated mice
T1 construct: from tissue; host or cells: living FVB-luc+ mice (whole animal, IP injection) after LPS challenge
T1 sequence (O89110 219-376 limits assumed): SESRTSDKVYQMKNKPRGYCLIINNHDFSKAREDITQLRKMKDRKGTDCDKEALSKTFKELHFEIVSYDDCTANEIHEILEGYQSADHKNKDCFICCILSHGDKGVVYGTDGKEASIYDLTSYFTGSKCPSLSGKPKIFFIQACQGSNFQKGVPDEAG
T1 sequence (O89110 388-480 limits assumed): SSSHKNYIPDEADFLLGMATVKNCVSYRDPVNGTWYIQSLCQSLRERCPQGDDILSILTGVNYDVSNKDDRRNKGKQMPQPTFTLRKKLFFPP
Excerpt: (§1) A Xenogen IVIS Spectrum instrument (Caliper Life Sciences, Hopkinton, Mass.) was used for bioluminescent imaging in all animal experiments. Mice were anesthetized prior to injection and during imaging via inhalation of isoflurane. Phosphate Buffered Saline (PBS) was purchased from Thermo Fisher Scientific (Waltham, Mass.), and saline (0.9%) was made from sodium chloride and Millipore water. Isoflurane was purchased from Phoenix Pharmaceuticals, Inc. (St. Joseph, Mo.), and pharmaceutical grade DMSO was purchased from Sigma-Aldrich (St. Louis, Mo.). Medical grade oxygen was purchased from Praxair (Danbury, Conn.).
(§2) FVB-luc^+ (FVB-Tg(CAG-luc,-GFP)L2G85Chco/J) mice were bred at UC Berkeley, and were single or group-housed on a 12:12 light-dark cycle at 22° C. with free access to food and water. All studies were approved and performed according to the guidelines of the Animal Care and Use Committee of the University of California, Berkeley.
Unshaven, female FVB-luc^+ mice, aged 2-5 months, were anesthetized with isoflurane and injected IP with lipopolysaccharides (LPS, 3 mg/kg in 50 μL of saline) or saline (50 μL). For studies with PCL-2 alone, mice were injected IP with either apocynin (10 mg/kg in 20 μL of DMSO) or DMSO (20 μL) 6 h after LPS injection. […]

H2O2 and caspase 8 = experiment: Lipopolysaccharide inflammation model, dual detection with PCL-2 and IETDC; settings: ascorbic acid 200 mg/kg and z-VD-OPh 1 μmol used together, LPS-treated mice
Excerpt: as §1, §2
For studies with PCL-2 and IETDC, mice were injected IP with ascorbic acid (200 mg/kg in 30 μL of saline) or the saline vehicle (30 μL) 30 min prior to IP injection of LPS (3 mg/kg in 50 μL of saline) or saline (50 μL). Two hours after injection of LPS, z-VD(OMe)-OPh (1 μmol in 20 μL of DMSO) or the vehicle, DMSO (20 μL), was injected IP. […]

FVB-luc^+ mice = experiment: Control: effect of inhibitors and antioxidants on HCBT and D-cysteine luciferin signal in mice; settings: apocynin 10 mg/kg or z-VD-OPh 1 μmol IP; HCBT and D-cysteine 0.01 μmol each
Experimental: (a) Total photon fluxes, 0-15 min post-injection, for mice (n=3) injected with apocynin (IP, 10 mg/kg in 20 μL DMSO) or vehicle (IP, 20 μL DMSO) two min prior to injections of a mixture of HCBT and D-cysteine (IP, 0.01 μmol each, in 50 μL of 1:1 DMSO:PBS). (b) Total photon fluxes, 15-45 min post-injection, for mice (n=3) injected with z-VD(OMe)-OPh (IP, 1 μmol in 20 μL DMSO) or vehicle (IP, 20 μL DMSO) 30 min prior to injections of a mixture of HCBT and D-cysteine (IP, 0.01 μmol each, in 50 μL of 1:1 DMSO:PBS). Error bars are ±SEM.
FIG. 18 depicts bioluminescent signals from HCBT and D-cysteine with ascorbic acid in FVB-luc^+ mice. Total photon fluxes, 30-60 min post-injection, for mice (n=3-4) injected with ascorbic acid (IP, 200 mg/kg in 30 μL saline) or vehicle (IP, 30 μL saline) 4.5 h prior to injections of a mixture of HCBT and D-cysteine (IP, 0.01 μmol each, in 50 μL of 1:1 DMSO:PBS). Error bars are ±SEM.

Row | attenuation of the IETDC signal (caspase 8) [%] | decrease in dual-probe bioluminescent signal (H2O2 and caspase 8) [%] | Structure (SMILES) | effect of NAC on the PCL-2 bioluminescent signal [1] | effect on the luciferin signal from HCBT and D-cysteine in vivo (FVB-luc^+ mice)
1 |  |  | CC(=O)N[C@@H](CS)C(=O)O [NAC, N-acetyl-L-cysteine] | considerably attenuated | 
2 | 34 | 30 | COC(=O)CC(NC(=O)C(NC(=O)OCc1ccccc1)C(C)C)C(=O)COc1c(F)cccc1F (stereo not shown) [z-VD-OPh] |  | do not alter the luciferin signal
